From patent US11279703B2, “Fused pyrimidine compounds as BRD4 and JAK2 dual inhibitors and methods for use thereof” (APTOSE BIOSCIENCES INC., priority 2016, dated 2022) come the findings set out here.

One assay has as its target BRD4-BD1 (Homo sapiens (Human), UniProt O60885). Nature of the assay: AlphaLisa bromodomain binding assay, BRD4-BD1. The conditions noted are these: Table 1; read-out: BRD4 IC50. From the text:
An AlphaLisa assay was used to observe bromodomain binding and measure IC50s for the compounds disclosed herein. An AlphaLisa assay is a bead-based assay used to detect interactions between bromodomains and polyacetylated histone peptides. Donor and acceptor beads bound to target and ligand are brought into proximity by this protein-protein interaction.
Equipment Required • 1. […] Plate centrifuge • 3. Plate shaker • 4. […] Single channel and multi-channel pipettes • 6. Microplate reader (Pherastar)
Stock and Final Assay Concentrations (FAC) • 1. All reference and test compounds are made at a concentration of 10 mM in DMSO. Compounds are serially diluted in DMSO and a FAC starting from 10 μM to 10 point 3 fold serial dilutions is arrived. FAC of DMSO is 1%. • 2. Enzyme stock and FAC
Biotinylated substrate (Acetylated histone H4, biotinylated substrate—cat no. AS64989-025, Anaspec) stock and FAC
• 4. Acceptor and donor beads stock and FAC
Buffers • For the enzyme and substrate dilution following buffer is used (for 50 ml) • HEPES: 50 mM 2.5 ml • NaCl: 25 mM 1.25 ml • DTT: 10 mM 0.05 ml • BSA: 0.1% 0.05 g • MilliQ water: 45.7 ml • For dilution of acceptor and donor beads AlphaLISA 5× epigenetics Buffer Perkin Elmer (Cat: AL008C) is used at 1× concentration.
Procedure • 1. […] Tap the plate gently • 3. […] Cover with plate sealer • 5. […] Incubate the plate at room temperature for 10 minutes • 7. Add 10 μl of the substrate • 8. Cover with plate sealer • 9. […] Cover with plate sealer • 14. […] Cover with plate sealer • 18.
The percent inhibition is calculated in the excel analysis template and the IC50 values are subsequently determined using a sigmoidal dose-response curve (variable slope) using GraphPad Prism® 5 software.
In general, IC50 refers to the concentration at which inhibition is half-maximal. As for `CN1CCC(NC(=O)c2ccc(Nc3ncc4ccn(-c5ccc(F)c(NS(=O)(=O)C(C)(C)C)c5)c4n3)cc2F)CC1` [drawing 47], the half-maximal inhibitory concentration (IC50) came out at 94 nM.

Consider `CN(C)C1CCN(c2ccc(Nc3ncc4ccn(-c5ccc(F)c(NS(=O)(=O)C(C)(C)C)c5)c4n3)cc2F)CC1` [drawing 48], for which the IC50 turned out to be 63 nM.

On to `CC(C)(C)S(=O)(=O)Nc1cccc(Nc2nc(NC3CCNCC3)nc3sccc23)c1` [drawing 49], for which the IC50 amounted to 94 nM.

As to `CC(C)(C)S(=O)(=O)Nc1cc(-n2ccc3cnc(Nc4ccc(N5CCNCC5)c(F)c4)nc32)ccc1F` [drawing 50], the IC50 was found to be 6 nM.

Staying with this assay, now noted: Table 2; read-out: BRD4 IC50.
`CC(C)(C)S(=O)(=O)N1CCc2ccc(Nc3nc(NC4CCOC4)nc4sccc34)cc21` (stereo not shown): the IC50 is 3200 nM.

On to `CC(C)(C)S(=O)(=O)Nc1cccc(Nc2nc(NC3CCNCC3)nc3sccc23)c1` [drawing 51], for which the IC50 stood at 94 nM.

`CN1CCN(c2ccc(Nc3nc(Nc4cccc(NS(=O)(=O)C(C)(C)C)c4)c4ccsc4n3)cc2)CC1` [drawing 52]: the IC50 came out at 388 nM.

Turning to `CC(C)(C)S(=O)(=O)Nc1cccc(Nc2nc(NCC3CCNCC3)nc3sccc23)c1` [drawing 53], the IC50 is 1200 nM.

`CC(C)(C)S(=O)(=O)Nc1cccc(Nc2nc(NC3CCNC3)nc3sccc23)c1` (stereo not shown) [drawing 54]: the IC50 is 1700 nM.

In the case of `CN1CCC(Nc2nc(Nc3ccc4c(c3)N(S(=O)(=O)C(C)(C)C)CC4)c3ccsc3n2)CC1` [drawing 55], the IC50 turned out to be 160 nM.

Consider `CC(C)(C)S(=O)(=O)N1CCc2ccc(Nc3nc(NCC4CCNCC4)nc4sccc34)cc21` [drawing 56], for which the IC50 worked out at 1000 nM.

Regarding `CC(C)(C)S(=O)(=O)N1CCc2ccc(Nc3nc(NC4CCNC4)nc4sccc34)cc21` (stereo not shown) [drawing 58], the IC50 was determined as 2600 nM.

`CN1CCC(Nc2nc(-n3ccc(C(=O)NC4CC4)c3)c3ccsc3n2)CC1` [drawing 59]: the IC50 turned out to be 450 nM.

Turning to `O=C(NC1CC1)c1ccn(-c2nc(NC3CCNCC3)nc3sccc23)c1` [drawing 60], the IC50 was found to be 399 nM.

The assay is the same for the next values; noted with them: Table 5; read-out: BRD4 IC50.
Turning to `CN1CCN(c2ccc(Nc3ncc4ccn(-c5cccc(NS(=O)(=O)C(C)(C)C)c5)c4n3)cc2)CC1` [drawing 73], the IC50 turned out to be 220 nM.

Still in this assay, the particulars now being: Table 6; read-out: BRD4(1) IC50.
In the case of `CNc1ncc2c(-c3cccc(-c4c(C)noc4C)c3)c[nH]c2n1`, the IC50 amounted to 10000 nM.

For the compound `Cc1noc(C)c1-c1cccc(-c2c[nH]c3nc(N4CCN(C)CC4)ncc23)c1`, the IC50 turned out to be 7190 nM.

As for `O=C1NCCc2c1ccn2-c1cnc(Nc2ccccc2)nc1`, the IC50 was determined as 1780 nM.

Consider `COc1ccc(Nc2ncc(-n3ccc4c3CCNC4=O)cn2)cc1`, for which the IC50 worked out at 9740 nM.

Turning to `O=C1NCCc2c1ccn2-c1cnc(Nc2ccc(F)cc2)nc1`, the IC50 turned out to be 11200 nM.

Take `CC1=NCC(C)=C1C1CCCC(c2c[nH]c3nc(N4CCNCC4)ncc23)C1` (stereo not shown): the IC50 came to 4060 nM.

Turning to `Cc1noc(C)c1-c1ccc2nc(N)sc2c1`, the IC50 is 4890 nM.

Regarding `CN1CCN(c2cccc(Nc3nc(Nc4cccc(NS(=O)(=O)C(C)(C)C)c4)c4ccsc4n3)c2)CC1`, the IC50 came to 5020 nM.

`CC(C)(C)S(=O)(=O)N1CCc2ccc(Nc3nc(Nc4cccnc4)nc4c3COC4)cc21`: the IC50 was determined as 3610 nM.

Turning to `CC(C)(C)S(=O)(=O)Nc1ccc(Nc2nc(NC3CCNCC3)nc3sccc23)cc1`, the IC50 was 7400 nM.

Turning to `Cc1noc(C)c1-c1cccc(-c2cn(C)c3nc(NC4CCNCC4)ncc23)c1`, the IC50 amounted to 4400 nM.

Consider `CN1CCC(Nc2nc(Nc3cccc(NS(=O)(=O)C(C)(C)C)c3)c3ccsc3n2)CC1`, for which the IC50 came to 376 nM.

With `CNCCNc1ncc2c(-c3cccc(-c4c(C)noc4C)c3)cn(C)c2n1`, the IC50 stood at 7500 nM.

In the case of `CNCCNc1ncc2c(-c3cccc(-c4c(C)noc4C)c3)c[nH]c2n1`, the IC50 was determined as 3230 nM.

For `CN1CCN(c2ccc(Nc3nc(Nc4ccc5c(c4)N(S(=O)(=O)C(C)(C)C)CC5)c4ccsc4n3)cc2)CC1`, the IC50 turned out to be 4560 nM.

Take `CC(C)(C)S(=O)(=O)N1CCc2ccc(Nc3nc(NC4CCNCC4)nc4sccc34)cc21`: the IC50 worked out at 640 nM.

Turning to `CN1CCN(c2ccc(Nc3nc4c(c(Nc5ccc6c(c5)N(S(=O)(=O)C(C)(C)C)CC6)n3)COC4)cc2)CC1`, the IC50 is 2390 nM.

With `CNCCNc1ncc2cc(-c3cccc(-c4c(C)noc4C)c3)ccc2n1`, the IC50 was 1100 nM.

`CC(C)(C)S(=O)(=O)N1CCc2ccc(Nc3nc(NC4CCNCC4)nc4c3COC4)cc21`: the IC50 came out at 1580 nM.

On to `CC(C)(C)S(=O)(=O)Nc1cccc(Nc2nc(NC3CCNCC3)nc3ccsc23)c1`, for which the IC50 came to 608 nM.

For the compound `CN1CCC(Nc2nc3c(c(Nc4cccc(NS(=O)(=O)C(C)(C)C)c4)n2)COC3)CC1`, the IC50 was 2320 nM.

As to `CN1CCC(Nc2nc(Nc3ccc4c(c3)N(S(=O)(=O)C(C)(C)C)CC4)c3sccc3n2)CC1`, the half-inhibitory concentration (IC50) is 2110 nM.

On to `Cc1cnc(Nc2ccc(N3CCN(C)CC3)cc2)cc1Nc1cccc(NS(=O)(=O)C(C)(C)C)c1`, for which the IC50 came out at 6310 nM.

As for `Cc1cnc(NC2CCN(C)CC2)nc1Nc1cccc(NS(=O)(=O)C(C)(C)C)c1`, the IC50 was found to be 1340 nM.

For the compound `CN1CCN(c2ccc(Nc3nc4c(c(Nc5cccc(NS(=O)(=O)C(C)(C)C)c5)n3)CCNC4)cc2)CC1`, the 50% inhibitory concentration (IC50) was 3200 nM.

As to `Cc1ccc(Nc2nc(NC3CCNCC3)nc3sccc23)cc1NS(=O)(=O)C(C)(C)C`, the IC50 came out at 318 nM.

With `Cc1ccc(Nc2nc(NC3CCN(C)CC3)nc3sccc23)cc1NS(=O)(=O)C(C)(C)C`, the IC50 was 206 nM.

Regarding `CC1(C)CN(Cc2ccccc2)CCC1Nc1nc(Nc2cccc(NS(=O)(=O)C(C)(C)C)c2)c2ccsc2n1` (stereo not shown), the IC50 is 7500 nM.

With `CN1CCC(Nc2nc(Nc3ccc(Cl)c(NS(=O)(=O)C(C)(C)C)c3)c3ccsc3n2)CC1`, the IC50 worked out at 180 nM.

Turning to `CC(C)(C)S(=O)(=O)Nc1cc(-n2ccc3cnc(Nc4ccc(N5CCNCC5)cc4)nc32)ccc1F`, the IC50 was 208 nM.

`CN1CCN(c2ccc(Nc3ncc4ccn(-c5ccc(Cl)c(NS(=O)(=O)C6CC6)c5)c4n3)cc2)CC1`: the IC50 came to 1700 nM.

For `CN1CCC(NC(=O)c2ccc(Nc3ncc4ccn(-c5cccc(NS(=O)(=O)C(C)(C)C)c5)c4n3)cc2)CC1`, the IC50 came out at 407 nM.

For `CN1CCC(c2ccc(Nc3ncc4ccn(-c5cccc(NS(=O)(=O)C(C)(C)C)c5)c4n3)cc2)CC1`, the IC50 was determined as 581 nM.

In the case of `COc1cc(Nc2ncc3ccn(-c4ccc(F)c(NS(=O)(=O)C5CC5)c4)c3n2)ccc1N1CCN(C)CC1`, the IC50 came out at 989 nM.

For the compound `CC(C)(C)S(=O)(=O)Nc1cccc(-n2ccc3cnc(Nc4ccc5c(c4)CCN4CCNCC54)nc32)c1` (stereo not shown), the IC50 is 750 nM.

For the compound `CN1CCN2c3c(F)cc(Nc4ncc5scc(-c6cccc(NS(=O)(=O)C(C)(C)C)c6)c5n4)cc3CC2C1` (stereo not shown), the IC50 is 1800 nM.

On to `CC(C)(C)S(=O)(=O)Nc1cccc(Nc2nc(NC3CCNCC3)nc3sccc23)c1` [drawing 151], for which the IC50 amounted to 94 nM.

Regarding `CN1CCN(c2ccc(Nc3nc(Nc4cccc(NS(=O)(=O)C(C)(C)C)c4)c4ccsc4n3)cc2)CC1` [drawing 153], the IC50 came out at 609 nM.

With `CC(C)(C)S(=O)(=O)Nc1cccc(Nc2nc(NC3CCNCC3)nc3sccc23)c1` [drawing 159], the IC50 was 344 nM.

In the case of `CN1CCC(Nc2nc(Nc3ccc4c(c3)N(S(=O)(=O)C(C)(C)C)CC4)c3ccsc3n2)CC1` [drawing 185], the IC50 came to 220 nM.

Take `CN1CCN(c2ccc(Nc3nc4c(c(Nc5cccc(NS(=O)(=O)C(C)(C)C)c5)n3)COC4)cc2)CC1` [drawing 188]: the IC50 worked out at 526 nM.

Consider `CC(C)(C)S(=O)(=O)N1CCc2ccc(Nc3nc(NC4CCNC4)nc4sccc34)cc21` (stereo not shown) [drawing 217], for which the IC50 amounted to 2750 nM.

Take `CC(C)(C)S(=O)(=O)N1CCc2ccc(Nc3nc(NCC4CCNCC4)nc4sccc34)cc21` [drawing 218]: the IC50 came out at 2170 nM.

Consider `CC(C)(C)S(=O)(=O)Nc1cccc(Nc2nc(NCC3CCNCC3)nc3sccc23)c1` [drawing 220], for which the IC50 is 2670 nM.

`CC(C)(C)S(=O)(=O)Nc1cccc(Nc2nc(NC3CCNC3)nc3sccc23)c1` (stereo not shown) [drawing 222]: the IC50 was 2380 nM.

With `O=C(NC1CC1)c1ccn(-c2nc(NC3CCNCC3)nc3sccc23)c1` [drawing 229], the IC50 came to 1830 nM.

On to `CN1CCC(Nc2nc(-n3ccc(C(=O)NC4CC4)c3)c3ccsc3n2)CC1` [drawing 230], for which the IC50 is 2200 nM.

With `Cc1cnc(Nc2ccc(N3CCN(C)CC3)c(F)c2)nc1Nc1ccc2c(c1)N(S(=O)(=O)C(C)(C)C)CC2` [drawing 235], the IC50 came to 155 nM.

`CC(C)(C)S(=O)(=O)Nc1cccc(Nc2nc(NC3CCNCC3)nc3sccc23)c1` [drawing 237]: the IC50 was 194 nM.

For the compound `CN1CCN(c2ccc(Nc3ncc4ccn(-c5cccc(NS(=O)(=O)C(C)(C)C)c5)c4n3)cc2)CC1` [drawing 275], the IC50 was 242 nM.

In the case of `CN1CCN(c2ccc(Nc3ncc4ccn(-c5cccc(NS(=O)(=O)C(C)(C)C)c5)c4n3)cc2)CC1` [drawing 288], the IC50 was determined as 5010 nM.

In the case of `CNCCCOc1ccc(Nc2ncc3ccn(-c4cccc(NS(=O)(=O)C(C)(C)C)c4)c3n2)cc1F` [drawing 448], the IC50 is 337 nM.
